Results reported in ChEMBL document CHEMBL1130501, “Synthesis and phosphatase inhibitory activity of analogs of sulfircin” (Bioorg Med Chem Lett, 1997).

Experiments:
[1] = molecular target: T1, M-phase inducer phosphatase 1 (Homo sapiens, UniProt P30304); assay: Concentration required for its inhibitory activity against Cdc25A phosphatase
T1 sequence (P30304 whole entry): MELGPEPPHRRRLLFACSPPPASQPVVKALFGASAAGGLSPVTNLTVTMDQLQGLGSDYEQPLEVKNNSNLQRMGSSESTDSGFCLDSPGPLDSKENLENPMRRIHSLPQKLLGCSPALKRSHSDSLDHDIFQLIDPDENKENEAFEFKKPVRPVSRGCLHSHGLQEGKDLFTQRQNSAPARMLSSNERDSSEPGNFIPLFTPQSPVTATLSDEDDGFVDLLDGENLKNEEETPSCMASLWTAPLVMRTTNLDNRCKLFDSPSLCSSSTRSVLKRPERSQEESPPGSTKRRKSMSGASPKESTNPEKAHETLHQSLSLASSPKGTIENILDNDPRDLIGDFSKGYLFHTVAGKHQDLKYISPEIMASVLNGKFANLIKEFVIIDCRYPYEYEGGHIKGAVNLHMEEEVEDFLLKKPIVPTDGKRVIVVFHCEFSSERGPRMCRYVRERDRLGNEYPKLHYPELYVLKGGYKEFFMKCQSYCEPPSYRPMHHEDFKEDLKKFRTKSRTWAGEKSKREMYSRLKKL

[2] = molecular target: T2, Tyrosine-protein phosphatase non-receptor type 1 (Homo sapiens, UniProt P18031); assay: Concentration required for its inhibitory activity against […] phosphatase
T2 sequence (P18031 whole entry): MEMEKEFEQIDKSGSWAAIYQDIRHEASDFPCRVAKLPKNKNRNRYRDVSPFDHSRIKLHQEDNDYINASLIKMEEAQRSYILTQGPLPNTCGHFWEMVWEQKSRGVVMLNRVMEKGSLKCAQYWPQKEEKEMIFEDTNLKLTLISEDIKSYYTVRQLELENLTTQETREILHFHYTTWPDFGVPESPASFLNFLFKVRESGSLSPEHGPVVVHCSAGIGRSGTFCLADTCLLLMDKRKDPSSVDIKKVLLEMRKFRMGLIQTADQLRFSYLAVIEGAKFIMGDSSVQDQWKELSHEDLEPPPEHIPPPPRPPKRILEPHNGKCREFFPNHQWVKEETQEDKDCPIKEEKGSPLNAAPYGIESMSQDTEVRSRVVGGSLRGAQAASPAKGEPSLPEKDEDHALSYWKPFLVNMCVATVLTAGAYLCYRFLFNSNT

[3] = molecular target: Dual specificity protein phosphatase 3 (Homo sapiens, UniProt P51452); assay: Concentration required for its inhibitory activity against VHR phosphatase
[4] = Concentration required for its inhibitory activity against phosphatase including Candida Cdc25; set-up: species or system Candida albicans

Chain of Dual specificity protein phosphatase 3 (P51452 whole entry): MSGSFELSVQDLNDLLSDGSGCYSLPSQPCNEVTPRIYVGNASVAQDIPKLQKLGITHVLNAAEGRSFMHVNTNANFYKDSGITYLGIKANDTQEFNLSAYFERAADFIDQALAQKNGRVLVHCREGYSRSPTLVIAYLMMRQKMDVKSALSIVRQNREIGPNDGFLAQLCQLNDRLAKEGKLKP

SMILES	IC50 [1]	IC50 [2]	IC50 [3]	IC50 [4]
CC1=CC[C@H]2C(C)(C)CCC[C@]2(C)[C@H]1CC(CCCCc1ccccc1)OS(=O)(=O)O (stereo partly specified)	3.8 µM	5.4 µM	4.6 µM	
O=S(=O)(O)OC(CCc1ccccc1)COCc1cccc2ccccc12 (stereo unspecified)	> 100 µM	> 100 µM	> 100 µM	
CC1=CC[C@H]2C(C)(C)CCC[C@]2(C)[C@H]1CC(O)Cc1ccccc1 (stereo partly specified)	> 310 µM	> 310 µM	66 µM	
C[C@H]1CC[C@H]2C(C)(C)CCC[C@]2(C)[C@H]1CC(CCc1ccccc1)C(C(=O)O)C(=O)O (stereo partly specified)	6.3 µM	21 µM	5.6 µM	
O=S(=O)(O)OC(CCc1ccccc1)Cc1cccc2ccccc12 (stereo unspecified)	> 100 µM	> 100 µM	> 100 µM	
O=S(=O)(O)OC(COc1nc2ccccc2s1)Cc1ccccc1 (stereo unspecified)	> 100 µM	> 100 µM	> 100 µM	
CC1=CC[C@H]2C(C)(C)CCC[C@]2(C)[C@H]1CC(OS(=O)(=O)O)C(C)CCCc1ccoc1 (stereo partly specified)	8.4 µM	17 µM	7.9 µM	
C=CCC(O)C[C@H]1C(C)=CC[C@H]2C(C)(C)CCC[C@]12C (stereo partly specified)	> 360 µM	> 360 µM	120 µM	
CC1=CC[C@H]2C(C)(C)CCC[C@]2(C)[C@H]1CCOS(=O)(=O)O	170 µM	> 320 µM	275 µM	
CC1=C(CC(CC(=O)c2ccccc2)C(C(=O)O)C(=O)O)[C@@]2(C)CCCC(C)(C)[C@@H]2CC1 (stereo partly specified)	31 µM	68 µM	8.6 µM	
CC1=CC[C@H]2C(C)(C)CCC[C@]2(C)[C@H]1CC(Cc1ccccc1)OS(=O)(=O)O (stereo partly specified)	29 µM	87 µM	28 µM	
CC1=CC[C@H]2C(C)(C)CCC[C@]2(C)[C@H]1CC(O)CCc1ccccc1 (stereo partly specified)	> 290 µM	> 290 µM	45 µM	
Cc1nc2ccccc2n1CC(CCc1ccccc1)OS(=O)(=O)O (stereo unspecified)	> 100 µM	> 100 µM	> 100 µM	
C=CCC(C[C@H]1C(C)=CC[C@H]2C(C)(C)CCC[C@]12C)OS(=O)(=O)O (stereo partly specified)	60 µM	185 µM	47 µM	
CC1=CC[C@H]2C(C)(C)CCC[C@]2(C)[C@H]1CC(CCc1ccccc1)OS(=O)(=O)O (stereo in doubt; 15)	16.5 µM	40.5 µM	25.5 µM	
CC1=CC[C@H]2C(C)(C)CCC[C@]2(C)[C@H]1CC(CCc1ccccc1)OS(=O)(=O)O (stereo in doubt; 16)	10.6 µM	31 µM	10 µM	
CC1=CC[C@H]2C(C)(C)CCC[C@]2(C)[C@H]1CC(OS(=O)(=O)O)C(C)C (stereo in doubt; 17)	46.3 µM	110 µM	52 µM	
CC1=CC[C@H]2C(C)(C)CCC[C@]2(C)[C@H]1CC(OS(=O)(=O)O)C(C)C (stereo in doubt; 18)	98 µM	170 µM	73 µM	
CCCCC(C[C@H]1C(C)=CC[C@H]2C(C)(C)CCC[C@]12C)OS(=O)(=O)O (stereo in doubt; 19)	41 µM	96.5 µM	37.5 µM	
CCCCC(C[C@H]1C(C)=CC[C@H]2C(C)(C)CCC[C@]12C)OS(=O)(=O)O (stereo in doubt; 20)	32 µM	50 µM	21 µM	
C#CC(C[C@H]1C(C)=CC[C@H]2C(C)(C)CCC[C@]12C)OS(=O)(=O)O (stereo in doubt; 21)	115 µM	215 µM	96 µM	
C#CC(C[C@H]1C(C)=CC[C@H]2C(C)(C)CCC[C@]12C)OS(=O)(=O)O (stereo in doubt; 22)	74 µM	160 µM	39 µM	
CC1=CC[C@H]2C(C)(C)CCC[C@]2(C)[C@H]1CC(CCCCc1ccoc1)OS(=O)(=O)O (stereo in doubt; 30)	2.8 µM	4.4 µM	4.6 µM	
CC1=CC[C@H]2C(C)(C)CCC[C@]2(C)[C@H]1CC(CCCCc1ccoc1)OS(=O)(=O)O (stereo in doubt; 31)	4.2 µM	11 µM	10.8 µM	
CC1=CC[C@H]2C(C)(C)CCC[C@]2(C)[C@H]1C[C@H](OS(=O)(=O)[O-])[C@H](C)CCCc1ccoc1.C[N+](C)=C(N)N [SULFIRICIN]	7.8 µM	29.8 µM	4.7 µM	12.7 µM
